The record followed here is patent publication US6692937B2, “DNA encoding small and intermediate conductance calcium-activated potassium channels” (ICAgen, Incorporated, priority 1997, dated 2004).

Where two headings read alike, the source gives them in different places.

Common to all, as to assay type: cell-based
One assay concerns the target T1, hIK1 (Homo sapiens, UniProt O15554).
T1 construct: expressed in transfected cells; host or cells: Xenopus oocytes injected with SP6-transcribed mRNA from vector pBF
As to the kind of experiment: Macroscopic hIK1 currents in macropatches excised from Xenopus oocytes. How it is done: 3B. Example 3B describes the electrophysiology of the hIK1 channel. All hIK1 channel subunits were subcloned into the oocyte expression vector pBF (unpublished, graciously provided by Dr. B. Fakler) which provides 5′ and 3′ untranslated regions from the Xenopus β-globin gene flanking a polylinker containing multiple restriction sites. In vitro mRNAs were generated using SP6 polymerase (GibcoBRL); following synthesis, mRNAs were evaluated spectrophotometrically and by ethidium bromide staining after agarose gel electrophoresis.
As described above, Xenopus care and handling were in accordance with the highest standards of institutional guidelines. Frogs underwent no more than two surgeries, separated by at least three weeks, and All surgeries were performed using well established techniques. Frogs were anesthetized with an aerated solution of 3-aminobenzoic acid ethyl ester. Oocytes were studied 2-14 days after injection with 0.5-5 ng of mRNA.
Inside-out macropatches were excised into an intracellular solution containing 116 mM K-gluconate. 4 mM KCl, 10 mM HEPES (pH 7.2, adjusted with KOH) supplemented with CaCl2 to give free calcium concentration of 5 μM; the proportion of calcium binding to gluconate was determined by a computer program (CaBuf assuming a stability constant for Ca^2+ gluconate of 15.9M^−1 (Dawson et al., 1969). To obtain Ca^2+ concentrations below 1 μM, 1 mM EGTA was added to the bath solution and CaCl2 was added as calculated using the CaBuf program and published stability constants (Fabiato and Fabiato, 1979). Electrodes were pulled from thin-wailed, filamented borosilicate glass (World Precision Instruments) and filled with 116 mM K-gluconate, 4 mM KCl, 10 mM HEPES (pH 7.2). Electrode resistance was typically 2-5 MΩ. For outside-out macropatches, the solutions were reversed. Membrane patches were voltage clamped using an Axopatch 200A amplifier (Axon Instruments). The data were low-pass Bessel filtered at 1 kH and acquired using Pulse software (HEKA Electronik). Analysis was performed using Pulse, Kaleidagraph (Abelbeck), or IGOR (Wavemetrics) software. Unless otherwise stated all experiments were performed at room temperature from a holding potential of 0 mV. 2.5 second voltage ramps from −100 to either 60 or 100 mV were acquired at a sampling frequency of 500 Hz. Values were expressed as mean±SD. Statistical differences were determined using an unpaired t-test; p values <0.05 were considered significant.
(§1) To compare hIK1 and SK2, normalized current was plotted as a function of Ca^2+ concentration, and the data points fitted with the Hill equation.

A further assay has as its target T2, hSK1 (Homo sapiens, UniProt Q92952).
T2 construct: expressed in transfected cells; host or cells: Xenopus oocytes injected with in vitro transcribed mRNA
Nature of the assay: Macroscopic currents in inside-out macropatches excised from Xenopus oocytes expressing hSK1. From the text:
(§2) Electrode resistance was typically 2-5 MΩ. Membrane patches were voltage clamped using an Axopatch 200A amplifier (Axon Instruments).

A further assay deals with T3, rSK2 (Rattus norvegicus, UniProt P70604).
T3 construct: expressed in transfected cells; host or cells: Xenopus oocytes injected with in vitro transcribed mRNA
T3 sequence (P70604 whole entry): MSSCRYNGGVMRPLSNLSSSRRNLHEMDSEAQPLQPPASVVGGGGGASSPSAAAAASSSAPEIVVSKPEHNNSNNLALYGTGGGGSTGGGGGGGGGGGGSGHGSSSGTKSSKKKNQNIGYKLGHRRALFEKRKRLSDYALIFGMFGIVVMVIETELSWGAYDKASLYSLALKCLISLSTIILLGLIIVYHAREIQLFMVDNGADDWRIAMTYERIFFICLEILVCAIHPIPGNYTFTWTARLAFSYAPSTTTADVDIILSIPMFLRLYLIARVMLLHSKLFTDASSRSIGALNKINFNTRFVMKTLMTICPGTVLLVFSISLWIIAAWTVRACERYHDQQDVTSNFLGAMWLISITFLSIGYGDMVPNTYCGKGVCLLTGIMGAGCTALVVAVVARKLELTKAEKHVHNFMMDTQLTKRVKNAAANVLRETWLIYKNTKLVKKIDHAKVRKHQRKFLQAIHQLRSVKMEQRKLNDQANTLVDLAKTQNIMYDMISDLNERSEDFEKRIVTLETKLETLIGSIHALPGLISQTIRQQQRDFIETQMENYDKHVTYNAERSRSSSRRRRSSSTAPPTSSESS
As to the kind of experiment: Macroscopic currents in inside-out macropatches excised from Xenopus oocytes expressing rSK2.
From the text: as §2, §1

T2 sequence (Q92952 other isoform, or with tags, fused parts or gaps): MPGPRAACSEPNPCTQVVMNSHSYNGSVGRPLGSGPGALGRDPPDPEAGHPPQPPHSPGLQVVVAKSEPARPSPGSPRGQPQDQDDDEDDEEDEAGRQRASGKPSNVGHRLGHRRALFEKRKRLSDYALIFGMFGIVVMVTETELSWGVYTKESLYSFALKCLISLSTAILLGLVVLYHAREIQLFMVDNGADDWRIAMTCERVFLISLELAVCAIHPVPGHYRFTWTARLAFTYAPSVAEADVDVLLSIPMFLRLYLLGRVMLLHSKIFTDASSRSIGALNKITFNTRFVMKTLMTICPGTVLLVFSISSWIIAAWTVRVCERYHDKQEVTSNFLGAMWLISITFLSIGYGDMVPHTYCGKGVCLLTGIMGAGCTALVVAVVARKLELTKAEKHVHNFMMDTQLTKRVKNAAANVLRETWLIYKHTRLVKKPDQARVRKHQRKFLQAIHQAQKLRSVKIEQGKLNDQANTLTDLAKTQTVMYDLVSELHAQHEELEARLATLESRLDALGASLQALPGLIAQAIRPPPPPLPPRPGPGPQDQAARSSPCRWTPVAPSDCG

Regarding `CC(C)C[C@@H]1NC(=O)[C@H](C)NC(=O)[C@H]([C@@H](C)O)NC(=O)[C@H](CCC(=O)O)NC(=O)[C@@H]2CCCN2C(=O)[C@H](C)NC(=O)[C@H](CCCCN)NC(=O)[C@@H]2CSSC[C@@H](C(=O)N[C@@H](CCC(N)=O)C(=O)N[C@@H](CCC(N)=O)C(=O)N[C@@H](Cc3cnc[nH]3)C(N)=O)NC(=O)[C@H](CCCNC(=N)N)NC(=O)[C@H](CCCNC(=N)N)NC(=O)[C@H](C)NC(=O)[C@H](CSSC[C@H](N)C(=O)N[C@@H](CC(N)=O)C(=O)N2)NC1=O` [apamin], the “reduction of hIK1 currents” value at hIK1 (100 nM apamin) came out at 12±5%.

In general, Kd refers to the free concentration of one partner at which half of the binding sites on the other are occupied at equilibrium, for simple one-to-one binding. On to `[Ca+2]` [calcium], for which the “Hill coefficient of Ca2+-dependence, hIK1” value on hIK1 (n=7) came out at 1.7±0.3. Also, the EC50 on hIK1 (normalized current versus Ca2+ concentration, n=7, read-out: K0.5 (concentration for half-maximal activation), hIK1) came to 320 ± 30 nM. Also, the “Hill coefficient of calcium dependence, hSK1” value at hSK1 (Hill fit) turned out to be 3.90±0.45. For the same compound, the Kd on hSK1 (Hill fit, read-out: Kd for calcium, hSK1) amounted to 0.7 ± 0.06 µM; on rSK2 (slope conductance at reversal potential versus calcium, Hill fit, 8 patches, read-out: average Kd for calcium, rSK2), 630 ± 230 nM. For the same compound, at rSK2 (Hill fit, 8 patches), the “Hill coefficient of calcium dependence, rSK2” value came out at 4.81±1.46. The “Hill coefficient of Ca2+-dependence, SK2” value at rSK2 (n=4) came out at 3.5±0.4.

In the case of `COc1cc2c3cc1Oc1cc(ccc1O)C[C@@H]1c4c(cc(OC)c(O)c4Oc4ccc(cc4)C[C@@H]3N(C)CC2)CC[N+]1(C)C` [dTC, d-tubocurare, reference compound], the “fold less sensitive, hSK1 versus rSK2” value on hSK1 (ratio of Kd hSK1 to Kd rSK2) was “approximately 30 fold”. In addition, the Kd on hSK1 (read-out: Kd for block of hSK1) was determined as 76.2 µM; on rSK2 (5 μM Ca2+, inside-out macropatches, dTC in patch pipette, read-out: Kd for block of rSK2 currents), 2400 nM.

`CC(=O)N1CCN(c2ccc(OCC3COC(Cn4ccnc4)(c4ccc(Cl)cc4Cl)O3)cc2)CC1` (stereo not shown) [ketoconazole]: the “block of hIK1” value on hIK1 (10 μM ketoconazole) came to 24±6%.

For “iberiotoxin (QFTDVDCSVSKECWSVCKDLFGVDRGKCMGKKCRCYQ) [IBX]”, the “block of hIK1 currents” value in the assay with hIK1 (50 nM IBX) came to 15±3%.
